Reference: patent US20230183248A1, “PYRROLO[1,2-D][1,2,4]TRIAZINE-2-YL-ACETAMIDES AS INHIBITORS OF THE NLRP3 INFLAMMASOME PATHWAY” (JANSSEN PHARMACEUTICA NV, priority 2020, published 2023)

Legend:
TNF = assay: PBMC assay: LPS-stimulated TNF cytokine levels; assay type: cell-based; settings: human PBMCs, 30 min compound pre-incubation, 100 ng/ml LPS for 6 hrs, supernatant, MSD
Experimental: (§1) Peripheral venous blood was collected from healthy individuals and human peripheral blood mononuclear cells (PBMCs) were isolated from blood by Ficoll-Histopaque (Sigma-Aldrich, A0561) density gradient centrifugation. After isolation, PBMCs were stored in liquid nitrogen for later use. Upon thawing, PBMC cell viability was determined in growth medium (RPMI media supplemented with 10% fetal bovine serum, 1% Pen-Strep and 1% L-glutamine). Compounds were spotted in a 1:3 serial dilution in DMSO and diluted to the final concentration in 30 µl medium in 96 well plates (Falcon, 353072). PBMCs were added at a density of 7.5 × 10^4 cells per well and incubated for 30 min in a 5% CO2 incubator at 37° C. LPS stimulation was performed by addition of 100 ng/ml LPS (final concentration, Invivogen, tlrl-smlps) for 6 hrs followed by collection of cellular supernatant and the analysis of IL-1β […] and TNF cytokines levels (µM) via MSD technology according to manufacturers’ guidelines (MSD, K151A0H).
(§2) The IC50 values (for IL-1β) and EC50 values (TNF) were obtained on compounds of the invention/examples, and are depicted in the following table: […]

IL-1β = assay: PBMC assay: LPS-stimulated IL-1β release; assay type: cell-based; settings: human PBMCs, 30 min compound pre-incubation, 100 ng/ml LPS for 6 hrs, supernatant, MSD
Experimental: as §1, §2

SMILES | EC50 (TNF; Homo sapiens, PBMC) [µM] | melting point [°C] | IC50 (IL-1β; Homo sapiens, PBMC) [µM] | IC50 (IL-1β) [µM] | EC50 (TNF) [µM]
CCc1nn(CC(=O)Nc2ccccc2OC)c(=O)c2cccn12 [Compound 13F] | > 10 | 167.68 | > 10 |  | 
CC(C)c1nn(CC(=O)Nc2ccncn2)c(=O)c2cc(F)cn12 [Compound 7F] | > 10 | 194.5 | > 10 |  | 
CC(=O)c1nn(CC(=O)Nc2ccncn2)c(=O)c2cc(C(C)C)cn12 [Compound 35F, 2-(4-acetyl-7-isopropyl-1-oxo-pyrrolo[1,2-d][1,2,4]triazin-2-yl)-N-pyrimidin-4-yl-acetamide] | > 10 | 284.78 | > 10 |  | 
CC(=O)NC(C)c1nn(CC(=O)Nc2ccncn2)c(=O)c2cc(C(C)C)cn12 (stereo not shown) [Compound 65F] | > 10 | 279.37 | 7.08 | 6.9 | 
CC(C)c1nn(CC(=O)NC2CCOCC2)c(=O)c2cc(-c3ccccc3)cn12 [Compound 48F] | > 10 | 217.95 | > 10 |  | 
CC(C)c1nn(CC(=O)Nc2ccncn2)c(=O)c2cc(-c3ccccc3)cn12 [Compound 47F] | > 10 | 209.7 | > 10 |  | 
CC(C)c1nn(CC(=O)Nc2ccncn2)c(=O)c2cc(C(C)(C)O)cn12 [Compound 86F, 2-(7-(2-hydroxypropan-2-yl)-4-isopropyl-1-oxopyrrolo[1,2-d][1,2,4]triazin-2(1H)-yl)-N-(pyrimidin-4-yl)acetamide] | > 10 |  | > 10 |  | 
CC(C)c1nn(CC(=O)Nc2ccncn2)c(=O)c2cc(C(=O)N(C)C)cn12 [Compound 77F] | > 10 |  | > 10 |  | 
CNCc1cc2c(=O)n(CC(=O)Nc3ccncn3)nc(C(C)C)n2c1 [Compound 44F] | > 10 |  | > 10 |  | 
CC(C)c1nn(CC(=O)Nc2ccncn2)c(=O)c2cc(CC3CCCOC3)cn12 (stereo not shown) [Compound 80F, 2-(4-isopropyl-1-oxo-7-((tetrahydro-2H-pyran-3-yl)methyl)pyrrolo[1,2-d][1,2,4]triazin-2(1H)-yl)-N-(pyrimidin-4-yl)acetamide] | > 10 |  | > 10 |  | 
CC(C)c1cc2c(=O)n(CC(=O)Nc3ccncn3)nc(N3CCOCC3)n2c1 [Compound 25F] | > 10 |  | > 10 |  | 
CC(C)c1nn(CC(=O)Nc2ccncn2)c(=O)c2cc(C(C)(C)F)cn12 [Compound 87F, 2-(7-(2-fluoropropan-2-yl)-4-isopropyl-1-oxopyrrolo[1,2-d][1,2,4]triazin-2(1H)-yl)-N-(pyrimidin-4-yl)acetamide] | > 10 |  | 8.26 |  | 
CC(C)c1nn(CC(=O)Nc2ccncc2F)c(=O)c2cc(Br)cn12 [Compound 2F] |  |  |  | 1.26 | > 10
CC(C)c1nn(CC(=O)Nc2ccncn2)c(=O)c2cc(-c3ccn(C)n3)cn12 [Compound 90F] | > 10 |  | > 10 |  | 
CC(C)c1nn(CC(=O)Nc2ccncn2)c(=O)c2cc(-c3cn(C)cn3)cn12 [Compound 93F, 2-(4-isopropyl-7-(1-methyl-1H-imidazol-4-yl)-1-oxopyrrolo[1,2-d][1,2,4]triazin-2(1H)-yl)-N-(pyrimidin-4-yl)acetamide] | > 10 |  | > 10 |  | 
CC(C)c1nn(CC(=O)Nc2ccncn2)c(=O)c2cc(Cc3ccccc3)cn12 [Compound 75F] | > 10 |  | > 10 |  | 
CCOC(C)c1nn(CC(=O)Nc2ccncn2)c(=O)c2cc(C(C)C)cn12 (stereo not shown) [Compound 40F] | > 10 |  | 8.13 |  | 
CC(=O)c1cc2c(=O)n(CC(=O)Nc3ccncn3)nc(C(C)C)n2c1 [Compound 85F, 2-(7-acetyl-4-isopropyl-1-oxopyrrolo[1,2-d][1,2,4]triazin-2(1H)-yl)-N-(pyrimidin-4-yl)acetamide] | > 10 | 262.3 | > 10 |  | 

Continued by falling IC50 (IL-1β; Homo sapiens, PBMC), values first:

EC50 (TNF; Homo sapiens, PBMC) [µM] | melting point [°C] | IC50 (IL-1β; Homo sapiens, PBMC) [µM] | IC50 (IL-1β) [µM] | EC50 (TNF) [µM] | SMILES
> 10 | 247.56 | 5.05 |  |  | CC(C)c1cc2c(=O)n(CC(=O)Nc3ccncn3)nc(C(C)O)n2c1 (stereo not shown) [Compound 36F, 2-[4-(1-hydroxyethyl)-7-isopropyl-1-oxo-pyrrolo[1,2-d] [1,2,4]triazin-2-yl]-N-pyrimidin-4-yl-acetamide]
> 10 |  | 5.04 |  |  | COc1nn(CC(=O)NC2CCOCC2)c(=O)c2cc(C(C)C)cn12 [Compound 66F]
> 10 |  | 4.24 |  |  | CC(C)c1nn(CC(=O)Nc2cccnc2)c(=O)c2cc(Br)cn12 [Compound 8F]
> 10 |  | 3.84 |  |  | CC(C)Cc1cc2c(=O)n(CC(=O)Nc3ccncn3)nc(C(C)C)n2c1 [Compound 34F, 2-(7-isobutyl-4-isopropyl-1-oxo-pyrrolo[1,2-d][1,2,4]triazin-2-yl)-N-pyrimidin-4-yl-acetamide]
> 10 | 185.03 | 3.7 |  |  | C=C(C)c1cc2c(=O)n(CC(=O)Nc3ccncn3)nc(C(C)C)n2c1 [Compound 16F, 2-(4-isopropyl-1-oxo-7-(prop-1-en-2-yl)pyrrolo[1,2-d][1,2,4]triazin-2(1H)-yl)-N-(pyrimidin-4-yl)acetamide]
> 10 | 211.91 | 3.4 |  |  | CC(C)c1nn(CC(=O)Nc2ccncc2F)c(=O)c2cc(Cl)cn12 [Compound 9F]
> 10 |  | 2.51 |  |  | CCCc1cc2c(=O)n(CC(=O)Nc3ccncn3)nc(OC)n2c1 [Compound 54F]
> 10 | 201.01 | 1.89 |  |  | C=C(OC)c1nn(CC(=O)Nc2ccncn2)c(=O)c2cc(C(C)C)cn12 [Compound 27F, 2-[7-isopropyl-4-(1-methoxyvinyl)-1-oxo-pyrrolo[1,2-d][1,2,4]triazin-2-yl]-N-pyrimidin-4-yl-acetamide]
> 10 | 181.03 | ~1.77 |  |  | CC(C)c1cc2c(=O)n(CC(=O)NC3CCOCC3)nc(C(C)C)n2c1 [Compound 51F]
> 10 | 216.46 | 1.67 |  |  | CC(C)c1nn(CC(=O)Nc2ccncn2)c(=O)c2cc(C(F)F)cn12 [Compound 29F]
> 10 |  | 1.47 |  |  | CCCCc1nn(CC(=O)N[C@H]2C[C@@](C)(O)C2)c(=O)c2cc(C(C)C)cn12 [Compound 60F]
> 10 | 156.3 | 1.4 |  |  | CCc1cc2c(=O)n(CC(=O)Nc3ccncn3)nc(N(C)CC)n2c1 [Compound 74F]
> 10 | 201.37 | 1.37 |  |  | COCc1nn(CC(=O)Nc2ccncn2)c(=O)c2cc(C(C)C)cn12 [Compound 63F]
> 10 | 150.14 | 1.32 |  |  | CCN(C)c1nn(CC(=O)Nc2ccncn2)c(=O)c2cc(C(C)C)cn12 [Compound 26F]
> 10 | 166.41 | 1.01 |  |  | CCCCc1nn(CC(=O)Nc2ccncn2)c(=O)c2cc(C(C)C)cn12 [Compound 61F]
> 10 | 184.19 | 0.89 |  |  | COCCc1nn(CC(=O)Nc2ccncn2)c(=O)c2cc(C(C)C)cn12 [Compound 24F]
> 10 | 142.64 | 0.67 |  |  | CCc1cc2c(=O)n(CC(=O)Nc3ccncc3F)nc(C(C)C)n2c1 [Compound 22F]
> 10 | 149.7 | 0.47 |  |  | CCCc1cc2c(=O)n(CC(=O)Nc3ccncn3)nc(C(C)C)n2c1 [Compound 59F]
> 10 | 182.51 | ~0.38 |  |  | CC(C)c1nn(CC(=O)Nc2ccncn2)c(=O)c2cc(C3CC3)cn12 [Compound 50F]
 | 171.4 | 0.37 |  |  | CCc1cc2c(=O)n(CC(=O)N[C@H]3C[C@@](C)(O)C3)nc(N(C)C)n2c1 [Compound 58F]
> 10 | 166.33 | 0.36 |  |  | CC(C)c1cc2c(=O)n(CC(=O)Nc3ccncn3)nc(N(C)C)n2c1 [Compound 55F]
> 10 | 178.1 | 0.35 |  |  | CCc1cc2c(=O)n(CC(=O)Nc3ccncn3)nc(N(C)C)n2c1 [Compound 73F, 2-(4-(dimethylamino)-7-ethyl-1-oxopyrrolo[1,2-d][1,2,4]triazin-2(1H)-yl)-N-(pyrimidin-4-yl)acetamide]
> 10 | 224.87 | 0.32 |  |  | C/C(=N/O)c1nn(CC(=O)N[C@H]2C[C@@](C)(O)C2)c(=O)c2cc(C(C)C)cn12 [Compound 64F]
> 10 |  | 0.28 |  |  | CCc1cc2c(=O)n(CC(=O)Nc3ccncn3)nc(C(C)C)n2c1 [Compound 23F]
> 10 | 196.59 | 0.16 |  |  | CC(C)c1cc2c(=O)n(CC(=O)N[C@H]3C[C@@](C)(O)C3)nc(C(C)C)n2c1 [Compound 68F]
